Laboratory results taken from patent US20090297545A1, “IMMUNOMODULATORY DAIRY PEPTIDES AND USES THEREOF” (Universite Laval, priority 2008, published 2009).
Several values for one entry are separate records, joined by “and”; a condition that tells them apart may be missing. Equal values may be shown once.

Key:
Type in all cases: cell-based, BALB/c mice
murine splenocytes [1] = experiment: Cytokine profile of splenocyte supernatants, RayBio Mouse Cytokine Antibody Array; settings: peptide 2000 μg/mL + ConA 0.5 μg/mL, 72 h; Cells + ConA = 1
Method: Cytokine analyses. After 72 hours, the supernatants from the splenocyte cultures with the cells, cells+ConA (0.5 μg/mL), and each of the peptides (2000 μg/mL) in the presence of ConA (0.5 μg/mL) were collected and stored at −20° C. until used for the cytokine detection assay. A cytokine profile analysis was performed by using the RayBio Mouse Cytokine Antibody Array G series 2 (RayBiotech, Inc., Norcross, Ga.), in order to obtain semi-quantitative levels of 32 different growth factors, cytokines and chemokines (Table 7).
Incubation protocol, signal detection, and interpretation of the data were performed according to manufacturer instructions. Results were expressed as the relative quantity of cytokines detected in the culture supernatants calculated according to the following equation: […]

murine splenocytes [2] = experiment: In vitro murine splenocyte proliferation assay (Alamar Blue), Example III; settings: for Effect on splenocyte proliferation in the presence of ConA at higher concentrations / Effect on ConA-induced proliferation at low concentrations: ConA 0.5 μg/mL; for Concentration at which stimulation of resting cell proliferation becomes significant: resting cells, dose-dependent up to 2000 μg/mL; for Effect on ConA-induced proliferation at low concentrations: 10 and 100 μg/mL
Method: In vitro murine splenocyte proliferation assay. The impact of whey peptides on splenocyte proliferation was assessed as follow. Spleens from 6-week-old female BALB/c mice (Charles River, St-Constant, QC, Canada) were removed, mechanically disrupted in complete RPMI-1640 medium (RPMI-1640 medium supplemented with 2 mmol L^−1 L-glutamine (Wisent, St-Bruno, QC, Canada), 10% foetal calf serum (FCS, Wisent), 50 μmol L^−1 mercaptoethanol (Sigma-Aldrich), and 100 μg mL^−1 of penicillin/streptomycin (Wisent), and then filtered through 70 μm cell strainer (BD Falcon, Bedford, Mass., USA) under aseptic conditions. Erythrocytes were lysed by osmotic shock using 0.87% NH4Cl (Sigma-Aldrich) for 2 min at 37° C., then cells were washed 3 times at 4° C. with complete RPMI. They were stained with 0.4% trypan blue (Celigro, Mediatech, Washington, D.C., USA) and counted using a Malassez chamber. The cell suspension was then adjusted to 1.25×10^6 viable cells mL^−1 in RPMI medium.
The cells (100 μL) were added to the wells of 96-well round-bottomed microplates containing 50 μL of RPMI, or 50 μL of peptide solutions. Various concentrations (10-2000 μg mL^−1) of the solutions, which were prepared in complete RPMI and adjusted to pH 7, were added to the wells. The same experiments were also performed in the presence of ConA (0.5 μg mL^−1) to evaluate the effects of the products on ConA-stimulated cells. The microplates with and without ConA were incubated for 72 h and 96 h, respectively. Cell proliferation was evaluated by the reduction of the fluorochrome Alamar Blue™ (BioSource international, Camarillo, Calif., USA), which was added to the wells (20 μL) for the last 24 h of the incubation periods. The fluorescence of the supernatants was monitored at an excitation wavelength of 544 nm and an emission wavelength of […] using a fluorometer (Fluoroscan Ascent, Thermo Electron Inc., Milford, Mass., USA). Data are expressed as a stimulation index (SI).

murine splenocytes [3] = experiment: Ex vivo murine splenocytes proliferation assay (Alamar Blue), Example I; settings: peptide 2000 μg/mL, FIG. 2
murine splenocytes [4] = experiment: Cytokine secretion in splenocyte culture supernatants by ELISA, Example I
Method: Cytokine analysis. The supernatants from 72 h-splenocytes cultures were collected and their cytokine content was measured. The optimal incubation times were determined from preliminary assays with peptide fractions. The levels of IL-4, IL-10 and IFN-γ were determined using commercial ELISA kits (BioLegend, San Diego, Calif., USA) according to the manufacturer's instructions. Interleukin-2 levels were also measured by ELISA using a commercial kit (BioSource International, Camarillo, Calif., USA) according to the manufacturer's instructions. The results are the means of four or more assays (three wells per sample). The detection limits for IL-2, IL-4, IL-10 and IFN-γ were <8.0, <1.0, <30.0 and <4.0 pg/mL, respectively.
Cytokine analysis were performed at concentration leading to optimal spleen cells proliferation of peptide β-Lg f139-148 (SEQ ID NO. 1) (2000 μg/mL) as reported in Tables 2 and 3. The sequence β-Lg f78-83 (SEQ ID NO. 10), resulting in no effect on the cytokine secretion of resting- and ConA-stimulated murine splenocytes (results not shown), was used as control at concentration of 10 μg/mL for statistical analysis. The effects of the selected peptide on cytokine secretion from splenocytes cultured in the absence and presence of 0.5 μg/mL of ConA are shown in Table 5.

murine splenocytes [5] = experiment: Ex vivo murine splenocytes proliferation assay (Alamar Blue), Example I
Method: Ex vivo murine splenocytes proliferation assay. The splenocytes were isolated from 6- to 12-weeks-old female BALB/c mice (Charles River, St-Constant, QC, Canada) and cultured in the absence and presence of suboptimal concentration of ConA (0.5 μg/mL). The peptides were solubilized in complete RPMI medium, agitated overnight at 4° C. then the solutions were adjusted to pH 7. Thereafter, the peptide solutions were added at various final concentrations (10-2000 μg/mL, protein basis) to the wells of 96-well round-bottomed microplates, which were incubated at 37° C. at 80% relative humidity in a 5% CO2 atmosphere for 72 h (with ConA) or 96 h (without ConA). Cell proliferation was evaluated by the reduction of the fluorochrome Alamar Blue™ (BioSource international, Camarillo, Calif., USA), which was added into the wells for the last 24 h of the incubation periods. The fluorescence of the supernatants was monitored at an excitation wavelength of 560 nm and an emission wavelength of 590 nm using a fluorometer (Fluoroscan Ascent, Thermo Electron Inc., Milford, Mass., USA). The assays were performed in triplicate (three wells per sample) and data are expressed as stimulation indices (SI), and calculated using the following equations: […]

[6] = splenocytes with ConA 0.5 μg mL^−1, control peptide 10 μg/mL
[7] = splenocytes without ConA, control peptide 10 μg/mL

| Substance | Relative quantity of IFN-γ in supernatant (murine splenocytes [1]) | Relative quantity of IL-2 in supernatant (murine splenocytes [1]) | Relative quantity of IL-3 in supernatant (murine splenocytes [1]) | Relative quantity of IL-4 in supernatant (murine splenocytes [1]) | Relative quantity of IL-17 in supernatant (murine splenocytes [1]) | Relative quantity of RANTES in supernatant (murine splenocytes [1]) | Relative quantity of VEGF in supernatant (murine splenocytes [1]) | Effect on splenocyte proliferation in the presence of ConA at higher concentrations (murine splenocytes [2]) | Concentration at which stimulation of resting cell proliferation becomes significant (murine splenocytes [2]) | Effect on ConA-induced proliferation at low concentrations (murine splenocytes [2]) | also measured |
| --- | --- | --- | --- | --- | --- | --- | --- | --- | --- | --- | --- |
| ALK (listed as Homo sapiens) [β-Lg f139-141] | 1.0 | 1.7 | 0.7 | 1 | 1.1 | 1.7 | 0.9 | lost their stimulating capacity | 500 µg/mL |  |  |
| Asp-Thr-Asp-Tyr (DTDY; listed as Homo sapiens) [β-Lg f96-99] | 4.5 | 3.6 | 2.8 | 1.8 | 1.7 | 1.4 | 2.3 | lost their stimulating capacity | 500 µg/mL | inhibited |  |
| GLDIQK (listed as Homo sapiens) [β-Lg f9-14] | 1.7 | 2.6 | 1.0 | 1.4 | 1.1 | 1.0 | 2.0 | lost their stimulating capacity |  |  | Effect on proliferation of resting splenocytes (murine splenocytes [2]; 10-2000 μg/mL, without ConA): only a small stimulation at the highest concentration |
| His-Ile-Arg (HIR; listed as Homo sapiens) [β-Lg f146-148] | 8.6 | 2.1 | 1.8 | 0.5 | 1.4 | 0.8 | 4.8 | lost their stimulating capacity | 500 µg/mL | inhibited | Stimulation index (SI), proliferation of resting splenocytes (murine splenocytes [2]; 500 μg/mL, without ConA): 1.20; Stimulation index (SI), proliferation of resting splenocytes (murine splenocytes [2]; 1000 μg/mL, without ConA): 1.36; Stimulation index (SI), proliferation of resting splenocytes (murine splenocytes [2]; 2000 μg/mL, without ConA): 1.37 |
| IPAVFK (listed as Homo sapiens) [β-Lg f78-83, β-lactoglobulin fragment 78-83 used as control peptide, reference compound] |  |  |  |  |  |  |  |  |  |  | Microscopic appearance of resting- and ConA-stimulated cultured cells (murine splenocytes [3]): no effect on the appearance of cultured cells; Effect on the cytokine secretion of resting- and ConA-stimulated murine splenocytes (murine splenocytes [4]; results not shown): no effect; IFN-γ secretion in supernatant (murine splenocytes [4]; [6]): 252.9 pg/mL; IL-2 secretion in supernatant (murine splenocytes [4]; [6]): 15.6 pg/mL; IL-4 secretion in supernatant (murine splenocytes [4]; [6]): 4.4 pg/mL; IL-10 secretion in supernatant (murine splenocytes [4]; [6]): <30.0 pg/mL; IFN-γ secretion in supernatant (murine splenocytes [4]; [7]): 7.1 pg/mL; IL-2 secretion in supernatant (murine splenocytes [4]; [7]): 10.0 pg/mL; IL-4 secretion in supernatant (murine splenocytes [4]; [7]): <1.0 pg/mL; IL-10 secretion in supernatant (murine splenocytes [4]; [7]): <30.0 pg/mL; Effect on the proliferation of ConA-stimulated murine splenocytes (murine splenocytes [5]; all concentrations studied (10-2000 μg/mL), ConA 0.5 μg/mL, FIG. 1B): no effect; Effect on the proliferation of resting murine splenocytes (murine splenocytes [5]; all concentrations studied (10-2000 μg/mL), FIG. 1A): no effect; Stimulation index, proliferation of murine splenocytes in the presence of Concavanalin A (murine splenocytes [5]; peptide 10 μg mL^−1, 72 h, ConA 0.5 μg/mL): 2.10 and 1.91 and 1.93 and 1.68; Stimulation index, proliferation of resting murine splenocytes (murine splenocytes [5]; peptide 10 μg mL^−1, 96 h, without ConA): 0.98 and 1.00 and 1.11 and 1.02 and 1.04 |
